Measurements published in patent US20050026949A1, “Methods of therapeutic treatment using amounts of retinoids without regard to body weight” (Allergan, Inc., priority 2003, published 2005).

How the values were obtained:
Assay type in all cases: in vivo, human
[1] = system: patient with severe psoriasis; assay: Patient with severe psoriasis taking Ortho-Novum treated with tazarotene (Example 9)
Source text: The patient presents symptoms of severe psoriasis. The symptoms include lesions approximately 4 to 10 centimeters across appearing as raised patches of wine red skin many of which are covered in silvery white scales. The lesions are mostly dry and rough, and quite often noticeably warm to the touch. The lesions are present on the elbows, knees, scalp, and groin area. The patient experiences intense burning and itching associated with the lesions.
The patient is currently taking Ortho-Novum® for contraception.
Tazarotene at a dose of 6 mg per day is prescribed.

[2] = PK and PD interaction studies of oral tazarotene with oral contraceptives (Example 8)
Protocol: It is the objective of this study to determine if there are pharmacokinetic (PK) and pharmacodynamic (PD) interactions between tazarotene and commonly prescribed oral contraceptives (OCs) when coadministered together.
Three separate clinical studies are conducted to evaluate the PK and PD interactions of oral tazarotene and OCs in healthy volunteers. Two studies evaluate daily doses of norethindrone (NE)/ethinyl estradiol (EE) with daily doses of tazarotene 1.1 mg (N=27) and 6 mg (N=29). The third study assesses the daily doses of norgestimate (NGM)/EE with daily doses of tazarotene 6 mg (N=26). OCs are administered for three consecutive menstrual cycles. Daily doses of tazarotene are started during the 2nd cycle and continued through the end of the studies. PK parameters for EE, NE, and NGM (AUC0-24 and Cmax) are determined before tazarotene dosing and after tazarotene dosing on day 6 of the 2nd and 3rd cycles. Serum concentrations of luteinizing hormone (LH) and follicle-stimulating hormone (FSH)-markers of contraceptive efficacy are also evaluated before tazarotene dosing and after tazarotene dosing on days 2, 4, and 6 of the 2nd and 3rd cycles. Serum progesterone levels are assessed on days 18 and 20 of the 2nd and 3rd cycles.
The plasma of each subject is tested for Cmax and AUC of tazarotenic acid, the primary active retinoid agent in systemic circulation as the result of the oral administration of tazarotene.

[3] = system: patients treated for acne; assay: Studies of orally administered tazarotene for acne: adverse events (Table 2); conditions: combined data from Studies 1 and 2 (N = 223)
Protocol: Studies are conducted on orally administered tazarotene for the treatment of acne. Adverse events (side effects) are monitored.

[4] = system: patients having nodulocystic acne; assay: Two placebo-controlled dose-ranging safety studies of oral tazarotene (Example 5); conditions: for incidence of joint disorder: placebo 0%; for incidence of arthralgia: placebo 6%; for incidence of myalgia: placebo 9%; for incidence of asthenia: placebo 13%; for incidence of dry skin: placebo 19%; for incidence of headache: placebo 28%; for incidence of cheilitis: placebo 31%; for depression: placebo 1 (2%); for emotional lability (all cases mild): placebo 2 (4%)
Protocol: Two placebo-controlled dose-ranging studies are conducted to evaluate the safety of oral tazarotene in patients having nodulocystic acne. In the first study, patients receive orally administered tazarotene at daily doses of 0.4 mg to 2.8 mg in 96 (71+25) patients (12 weeks treatment plus 12 weeks post-treatment). In the second study, daily doses of 0.75 mg to 6 mg tazarotene are administered to 181 patients (24 weeks treatment plus 12 weeks post-treatment).

patients = assay: Two placebo-controlled 24-week safety studies of oral tazarotene plus dose-response evaluations (Example 3)
Protocol: Two multicenter, double-blind, randomized, placebo-controlled 24-week studies of identical design are conducted to evaluate the safety of oral tazarotene. In addition, 16- to 24-week dose-response evaluations are performed.
In the two safety trials, the incidence of adverse side effects with a 4.5 mg dose administered orally once daily is compared to the incidence of the same side effects with a placebo. […] The majority of these were mild in severity and typical of adverse effects associated with oral retinoids.

[5] = 4.5 mg orally once daily, placebo 0%
[6] = 4.5 mg orally once daily, placebo 1%
[7] = 4.5 mg orally once daily, placebo 2%
[8] = 4.5 mg orally once daily, placebo 3%
[9] = 4.5 mg orally once daily, placebo 8%
[10] = 4.5 mg orally once daily, placebo <1%

- effect on PK or efficacy of NE/EE and NGM/EE oral contraceptives ([2]; orally, up to 6 mg once daily): does not affect
- 90% confidence intervals of AUC0-24 and Cmax for EE, NE, and NGM ([2]; tazarotene 1.1 mg or 6 mg daily with NE/EE, 6 mg daily with NGM/EE): within the 80-125% boundary
SMILES: CCOC(=O)c1ccc(C#Cc2ccc3c(c2)C(C)(C)CCS3)nc1 [tazarotene]
- psoriasis symptoms and lesions ([1]; 6 mg per day, after 30 days): symptoms of itching and burning are relieved and the severity of their lesions are substantially lessened
- serum FSH and LH levels ([1]; tazarotene 6 mg per day with Ortho-Novum): remain within the normal ranges
- 90% confidence intervals of FSH and LH ([2]; tazarotene coadministered with oral contraceptives): generally within the 80-125% boundary
- 90% confidence intervals of progesterone concentrations ([2]; tazarotene coadministered with oral contraceptives, days 18 and 20 of 2nd and 3rd cycles): within the 80-125% boundary
- serum FSH and LH levels ([2]; tazarotene coadministered with oral contraceptives, follicular phase): remain within the normal ranges
- Cheilitis [3]: 134 (60.1) NUMBER OF (%) OF PATIENTS
- Conjunctivitis [3]: 0 (0.0) NUMBER OF (%) OF PATIENTS
- Desquamation central face/Desquamation [3]: 1 (0.4) NUMBER OF (%) OF PATIENTS
- Dry Skin [3]: 79 (35.4) NUMBER OF (%) OF PATIENTS
- Dry nose [3]: 7 (3.1) NUMBER OF (%) OF PATIENTS
- Epistaxis [3]: 6 (2.7) NUMBER OF (%) OF PATIENTS
- Fingertip peeling/Desquamation [3]: 1 (0.4) NUMBER OF (%) OF PATIENTS
- Headache [3]: 26 (11.7) NUMBER OF (%) OF PATIENTS
- Irritation of eyes [3]: 0 (0.0) NUMBER OF (%) OF PATIENTS
- Joint pain/Arthralgia [3]: 18 (8.1) NUMBER OF (%) OF PATIENTS
- Peeling/Desquamation [3]: 1 (0.4) NUMBER OF (%) OF PATIENTS
- Pruritus [3]: 10 (4.5) NUMBER OF (%) OF PATIENTS
- Rash-dermatitis/Rash [3]: 7 (3.1) NUMBER OF (%) OF PATIENTS
- Red Scaly face/Desquamation [3]: 1 (0.4) NUMBER OF (%) OF PATIENTS
- Skin fragility/Skin disorder [3]: 1 (0.4) NUMBER OF (%) OF PATIENTS
- changes in urinalysis, chemistry, or hematology measures (including liver function tests, triglycerides, total cholesterol, HDL cholesterol) ([4]; 0.4 mg to 6 mg daily): no consistent dose-related clinically significant changes
- ligament calcification, osteophyte formation, or changes in serum bone alkaline phosphatase, serum amino terminal telopeptides, or bone density ([4]; 0.4 mg to 6 mg daily): not associated with any clinically significant
- patients withdrawing due to adverse events ([4]; 0.75 mg): 2 patients
- incidence of joint disorder ([4]; 2.8 mg, n=11): 27%
- incidence of arthralgia ([4]; 2.8 mg, n=11): 9%
- incidence of myalgia ([4]; 2.8 mg, n=11): 0%
- incidence of asthenia ([4]; 2.8 mg, n=11): 0%
- incidence of dry skin ([4]; 2.8 mg, n=11): 18%
- incidence of headache ([4]; 2.8 mg, n=11): 9%
- incidence of cheilitis ([4]; 2.8 mg, n=11): 64%
- patients withdrawing due to adverse events ([4]; 3 mg): 2 patients
- cheilitis, mild ([4]; 3 mg group): 25 patients
- cheilitis, moderate ([4]; 3 mg group): 3 patients
- cheilitis, severe ([4]; 3 mg group): 1 patient
- dry skin, mild ([4]; 3 mg group): 11 patients
- dry skin, moderate ([4]; 3 mg group): 2 patient
- depression ([4]; 3 mg group (2 mild, 1 severe)): 3 (8%) patients (%)
- emotional lability (all cases mild) ([4]; 3 mg group): 1 (3%) patient (%)
- incidence of joint disorder ([4]; 3 mg, n=37): 14%
- incidence of arthralgia ([4]; 3 mg, n=37): 8%
- incidence of myalgia ([4]; 3 mg, n=37): 16%
- incidence of asthenia ([4]; 3 mg, n=37): 19%
- incidence of dry skin ([4]; 3 mg, n=37): 35%
- incidence of headache ([4]; 3 mg, n=37): 19%
- incidence of cheilitis ([4]; 3 mg, n=37): 78%
- patients withdrawing due to adverse events ([4]; 6 mg): 1 patients
- cheilitis, mild ([4]; 6 mg group): 27 patients
- cheilitis, moderate ([4]; 6 mg group): 6 patients
- cheilitis, severe ([4]; 6 mg group): 1 patient
- dry skin, mild ([4]; 6 mg group): 17 patients
- dry skin, moderate ([4]; 6 mg group): 1 patient
- depression ([4]; 6 mg group): none
- emotional lability (all cases mild) ([4]; 6 mg group): 5 (14%) patient (%)
- incidence of joint disorder ([4]; 6 mg, n=36): 19%
- incidence of arthralgia ([4]; 6 mg, n=36): 28%
- incidence of myalgia ([4]; 6 mg, n=36): 25%
- incidence of asthenia ([4]; 6 mg, n=36): 19%
- incidence of dry skin ([4]; 6 mg, n=36): 50%
- incidence of headache ([4]; 6 mg, n=36): 36%
- incidence of cheilitis ([4]; 6 mg, n=36): 94%
- patients withdrawing from either study due to adverse events ([4]; 7/277, all groups incl. placebo): 2.5%
- dry skin, severe ([4]; all groups): No patient has severe dry skin
- incidence of patients discontinuing due to adverse effects (patients; 4.5 mg (n=348)): 3%
- incidence of ocular, auditory, or thyroid problems (patients; 4.5 mg orally once daily vs placebo): no statistically significant between-group difference
- incidence of agitation (patients; [5]): < 1%
- incidence of dermatitis (patients; [5]): 1%
- incidence of hyperglycemia (patients; [5]): 2%
- incidence of foot pain (patients; [6]): 3%
- incidence of joint disorder (patients; [6]): 4%
- incidence of nasal dryness (patients; [6]): 4%
- incidence of rash (patients; [6]): 3%
- incidence of altered hormone levels (elevated TSH and T4, decreased T4, abnormal thyroid function test) (patients; [7]): 0%
- incidence of depression (patients; [7]): 1%
- incidence of back pain (patients; [8]): 7%
- incidence of emotional lability (patients; [8]): 3%
- incidence of arthralgia (patients; [9]): 17%
- incidence of myalgia (patients; [9]): 14%
- incidence of headache (patients; 4.5 mg orally once daily, placebo 12%): 19%
- incidence of dry skin (patients; 4.5 mg orally once daily, placebo 15%): 24%
- incidence of cheilitis (patients; 4.5 mg orally once daily, placebo 17%): 66%
- incidence of anxiety (patients; [10]): 1%
- incidence of psychosis (patients; [10]): 0%
- incidence of psychotic depression (patients; [10]): 0%
- incidence of patients discontinuing due to adverse effects (patients; 6.3 mg (n=16)): 13%
- incidence of patients discontinuing due to adverse effects (patients; 0.4 to 1.1 mg oral tazarotene (n=105)): approximately 2%
- incidence of patients discontinuing due to adverse effects (patients; 2.1 to 2.8 mg oral tazarotene (n=21)): 10%
- incidence of patients discontinuing due to adverse effects (patients; w.2 mg (n=14)): 0%
